Measurements: the supplement of paper PMC10307832

Legend:
Experiment in all cases: relative viability (nuclei count vs DMSO), 5 days (fraction); higher = more cells survive
IPA-3 + Pictilisib = compound: C1=CC=C2C(=C1)C=CC(=C2SSC3=C(C=CC4=CC=CC=C43)O)O [IPA-3] + CS(=O)(=O)N1CCN(Cc2cc3nc(-c4cccc5[nH]ncc45)nc(N4CCOCC4)c3s2)CC1 [Pictilisib] (partner 1 µM)
In short: (§1)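 Each reported value is a median over duplicate plates. It expresses relative viability: treated-well nuclei count divided by vehicle-well nuclei count. Lung cancer cell lines in 1536-well plates were dosed by pin tool a day after seeding, alone with one drug or with a fixed anchor-drug dose plus five library-drug doses (not always all listed) in √10 steps, and nuclei were counted after 5 days.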

Doramapimod + Lapatinib = compound: Cc1ccc(-n2nc(C(C)(C)C)cc2NC(=O)Nc2ccc(OCCN3CCOCC3)c3ccccc23)cc1 [Doramapimod] + CS(=O)(=O)CCNCc1ccc(-c2ccc3ncnc(Nc4ccc(OCc5cccc(F)c5)c(Cl)c4)c3c2)o1 [Lapatinib] (partner 2 µM)
In short: as §1

RAF265 + Navitoclax = compound: Cn1c(Nc2ccc(C(F)(F)F)cc2)nc2cc(Oc3ccnc(-c4ncc(C(F)(F)F)[nH]4)c3)ccc21 [RAF265] + CC1(C)CCC(c2ccc(Cl)cc2)=C(CN2CCN(c3ccc(C(=O)NS(=O)(=O)c4ccc(N[C@H](CCN5CCOCC5)CSc5ccccc5)c(S(=O)(=O)C(F)(F)F)c4)cc3)CC2)C1 [Navitoclax] (partner 0.5 µM)
In short: as §1

RAF265 + Linsitinib = compound: Cn1c(Nc2ccc(C(F)(F)F)cc2)nc2cc(Oc3ccnc(-c4ncc(C(F)(F)F)[nH]4)c3)ccc21 [RAF265] + C[C@]1(O)C[C@@H](c2nc(-c3ccc4ccc(-c5ccccc5)nc4c3)c3c(N)nccn32)C1 [Linsitinib] (partner 1 µM)
In short: as §1

| Cell Line | relative viability (IPA-3 + Pictilisib; first compound 0.2 µM) | relative viability (IPA-3 + Pictilisib; first compound 0.6325 µM) | relative viability (IPA-3 + Pictilisib; first compound 2 µM) | relative viability (IPA-3 + Pictilisib; first compound 6.325 µM) | relative viability (IPA-3 + Pictilisib; first compound 20 µM) | relative viability (Doramapimod + Lapatinib; first compound 0.02 µM) | relative viability (Doramapimod + Lapatinib; first compound 0.06325 µM) | relative viability (Doramapimod + Lapatinib; first compound 0.2 µM) | relative viability (Doramapimod + Lapatinib; first compound 0.6325 µM) | relative viability (Doramapimod + Lapatinib; first compound 2 µM) | relative viability (RAF265 + Navitoclax; first compound 0.01 µM) | relative viability (RAF265 + Navitoclax; first compound 0.03162 µM) | relative viability (RAF265 + Navitoclax; first compound 0.1 µM) | relative viability (RAF265 + Navitoclax; first compound 0.3162 µM) | relative viability (RAF265 + Navitoclax; first compound 1 µM) | relative viability (RAF265 + Linsitinib; first compound 0.01 µM) | relative viability (RAF265 + Linsitinib; first compound 0.03162 µM) | relative viability (RAF265 + Linsitinib; first compound 0.1 µM) | relative viability (RAF265 + Linsitinib; first compound 0.3162 µM) | relative viability (RAF265 + Linsitinib; first compound 1 µM) |
| --- | --- | --- | --- | --- | --- | --- | --- | --- | --- | --- | --- | --- | --- | --- | --- | --- | --- | --- | --- | --- |
| NCI-H1975 | 0.342 | 0.284 | 0.316 | 0.321 | 0.259 | 0.937 | 0.947 | 0.898 | 1.23 | 0.901 | 1.17 | 0.812 | 0.912 | 0.528 | 0.324 | 0.855 | 0.712 | 0.567 | 0.43 | 0.361 |
| Calu-6 | 1.06 | 0.872 | 0.933 | 0.736 | 0.848 | 1.06 | 1.13 | 1.17 | 1.19 | 0.985 | 0.753 | 0.588 | 0.569 | 0.304 | 0.221 | 0.94 | 0.83 | 0.523 | 0.279 | 0.223 |
| NCI-H3122 | 0.612 | 0.566 | 0.559 | 0.697 | 0.594 | 1.02 | 0.962 | 0.974 | 1.08 | 0.932 | 1 | 1.08 | 1.01 | 1.04 | 0.967 | 1.02 | 1.2 | 0.947 | 1.02 | 0.841 |
| NCI-H2347 | 0.423 | 0.644 | 0.522 | 0.717 | 0.605 | 0.932 | 0.897 | 0.969 | 0.67 | 0.875 | 1.03 | 0.786 | 0.864 | 0.456 | 0.467 | 1.2 | 0.923 | 0.924 | 0.744 | 0.544 |
| HCC-44 | 0.605 | 1.49 | 0.53 | 1.04 | 0.63 | 1.1 | 1.05 | 1.07 | 0.837 | 0.963 | 0.879 | 0.884 | 1.03 | 1.03 | 0.916 | 0.643 | 0.617 | 0.667 | 0.661 | 0.64 |
| HCC-78 | 0.23 | 0.218 | 0.229 | 0.229 | 0.282 | 0.745 | 0.936 | 0.79 | 0.837 | 0.885 | 0.898 | 0.901 | 0.912 | 0.726 | 0.731 | 0.553 | 0.468 | 0.574 | 0.47 | 0.439 |
| COR-L23 | 1.01 | 0.75 | 0.764 | 0.615 | 0.72 | 1.09 | 1.1 | 0.99 | 1.01 | 0.91 | 0.976 | 0.957 | 0.918 | 0.512 | 0.514 | 0.847 | 0.838 | 0.662 | 0.431 | 0.312 |
| NCI-H1993 | 0.735 | 0.742 | 0.969 | 0.681 | 1.04 | 0.792 | 0.728 | 0.774 | 1.03 | 0.877 | 1.1 | 0.947 | 1.08 | 0.719 | 0.783 | 0.68 | 0.763 | 0.66 | 0.713 | 0.722 |
| NCI-H2405 | 0.458 | 0.382 | 0.354 | 0.519 | 0.416 | 1.15 | 1.1 | 1.07 | 1.16 | 0.969 | 0.984 | 0.86 | 0.973 | 0.909 | 0.335 | 0.993 | 0.884 | 1.03 | 0.852 | 0.378 |
| NCI-H2126 | 0.48 | 0.505 | 0.449 | 0.503 | 0.512 | 0.815 | 0.811 | 0.781 | 0.735 | 0.662 | 0.813 | 0.826 | 0.866 | 0.687 | 0.616 | 0.712 | 0.691 | 0.743 | 0.574 | 0.49 |
| NCI-H358 | 0.35 | 0.347 | 0.372 | 0.372 | 0.291 | 0.508 | 0.426 | 0.472 | 0.571 | 0.443 |  |  |  |  |  | 0.843 | 0.565 | 0.443 | 0.37 | 0.267 |
| ABC-1 | 0.863 | 0.698 |  | 0.803 | 0.75 | 1.03 | 1.15 | 1.17 | 1.54 | 1.35 |  |  |  |  |  | 0.875 | 0.803 | 0.933 | 0.661 | 0.407 |
| LCLC-103H | 0.572 | 0.596 | 0.533 | 0.578 | 0.705 |  |  |  |  |  |  |  |  |  |  | 1.03 | 1.14 | 1.1 | 0.944 | 0.641 |
| NCI-H1563 | 0.68 | 0.62 | 0.622 | 0.694 | 0.59 | 0.935 | 0.923 | 1.04 | 0.681 | 0.907 |  |  |  |  |  | 1.13 | 1.32 | 1.17 | 1.26 | 1.18 |
| NCI-H650 | 1.15 | 0.89 | 0.922 | 1.17 | 1.15 | 1.03 | 0.938 | 1.43 | 0.921 | 0.844 |  |  |  |  |  | 0.972 | 0.845 | 0.666 | 0.442 | 0.375 |
| NCI-H1650 | 0.811 | 0.391 | 0.569 | 0.551 | 0.736 | 0.665 | 0.736 | 0.795 | 0.247 | 0.786 | 1.17 | 1.18 | 1.53 | 1.19 | 1.22 |  |  |  |  |  |
| NCI-H661 | 0.409 | 0.458 | 0.472 | 0.547 | 0.418 | 0.477 | 0.438 | 0.48 | 0.588 | 0.413 |  |  |  |  |  | 0.589 | 0.412 | 0.686 | 0.455 | 0.33 |
| NCI-H441 | 0.479 | 0.457 | 0.41 | 0.462 | 0.427 |  |  |  |  |  | 0.582 |  | 0.515 | 0.5 | 0.776 | 0.617 | 0.495 | 0.415 | 0.3 | 0.389 |
